Laboratory results from patent publication US6255317A, “Cholesterol biosynthesis inhibitors” (Hanwha Chemical Corporation, priority 1998, dated 2001).

The molecules below were run against T1, sterol 14-reductase (Rattus norvegicus, UniProt A0ACM8Q6X4) (assay: Sterol 14-reductase assay with rat liver microsomes (substrate 4,4-dimethyl-5α-cholesta-7,14-dien-3β-ol, GLC)). Conditions: not given.
T1 construct: to give a microsome which was used as an enzyme source of sterol 14-reductase; from tissue
T1 sequence (A0ACM8Q6X4 1-418): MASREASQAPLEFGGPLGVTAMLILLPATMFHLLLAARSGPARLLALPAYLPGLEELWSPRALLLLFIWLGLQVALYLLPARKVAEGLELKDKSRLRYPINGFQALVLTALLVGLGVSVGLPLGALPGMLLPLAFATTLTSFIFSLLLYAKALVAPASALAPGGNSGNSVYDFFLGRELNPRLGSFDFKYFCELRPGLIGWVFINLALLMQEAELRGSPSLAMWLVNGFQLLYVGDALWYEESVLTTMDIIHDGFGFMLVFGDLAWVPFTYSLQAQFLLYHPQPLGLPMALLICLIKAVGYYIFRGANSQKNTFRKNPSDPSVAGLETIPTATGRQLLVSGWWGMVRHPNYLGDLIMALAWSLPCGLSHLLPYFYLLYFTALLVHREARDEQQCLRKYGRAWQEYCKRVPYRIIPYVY
Format: biochemical, Sprague-Dawley rats
In the case of `COc1cc2c(cc1OC)-c1c(C)c3ccc(OC)c(OC)c3c[n+]1CC2`, the “inhibition of sterol 14-reductase (in words)” value is reported as “effectively inhibit”.

Same assay, conditions: dissolved in DMSO; read-out: concentration of active ingredient in the assay at which 50% of inhibitory effect was observed (sterol 14-reductase)
Molecule `COc1cc2c(cc1OC)-c1c(C)c3ccc(OC)c(OC)c3c[n+]1CC2` has an IC50 of 40000 to 50000 µM.

Same assay, conditions: read-out: Enzyme Activity (relative in vitro activity for sterol 14-reductase, IC50 class)
Molecule `C=CCc1c2[n+](cc3c(O)c(O)ccc13)CCc1cc(O)c(O)cc1-2` [Compound No. 10, 2,3,9,10-Tetrahydroxy-13-allylberberine] has an IC50 of at least 100 µM. For `CCCCc1c2[n+](cc3c(OC)c(OC)ccc13)CCc1cc(OC)c(OC)cc1-2` [Compound No. 12, 13-n-butylpalmatine], the IC50 was 10 to 100 µM. In the case of `CCCCC1c2c(ccc(OC)c2OC)C=C2c3cc4c(cc3CCN21)OCO4` (stereo not drawn) [Compound No. 30, 8-n-butyldihydroberberine], the IC50 is reported as at least 100 µM. For `COc1cc2c(cc1OC)-c1c(CC3CC3)c3ccc(OC)c(OC)c3c[n+]1CC2` [Compound No. 13, 13-(cyclopropylmethyl)palmatine], the IC50 was at least 100 µM. Work on `Oc1cc2c(cc1O)-c1cc3ccc(O)c(O)c3c[n+]1CC2` [Compound No. 3, 2,3,9,10-Tetrahydroxyberberine] yielded an IC50 of at least 100 µM. Molecule `CCc1c2[n+](cc3c(NCCO)c(OC)ccc13)CCc1cc(OC)c(OC)cc1-2` [Compound No. 25, 9-Hydroxyethylamino-13-ethylberberine] has an IC50 of 10 to 100 µM. For `CCC1=C2c3cc(OC)c(OC)cc3CCN2C(CC(=O)CC(C)C)c2c1ccc(OC)c2OC` (stereo not drawn) [Compound No. 40, 8-(4-methylpentan-2-one-1-yl)-13-ethyldihydropalmatine], the IC50 was 10 to 100 µM. In the case of `CCOC(=O)c1c2[n+](cc3c(OC)c(OC)ccc13)CCc1cc(OC)c(OC)cc1-2` [Compound No. 19, 13-Ethoxycrbonylpalmatine], the IC50 is reported as at least 100 µM. `COc1ccc2c(C)c3[n+](cc2c1OC)CCc1cc2c(cc1-3)OCO2` [Compound No. 1, 13-Methylberberine] gave an IC50 of 10 to 100 µM. Work on `COc1ccc2c(C3CCOC3=O)c3[n+](cc2c1OC)CCc1cc2c(cc1-3)OCO2` (stereo not drawn) [Compound No. 23, 13-α-(γ-lactonyl)berberine] yielded an IC50 of at least 100 µM. With `CCCCC1c2c(ccc(OC)c2OC)C(CC)=C2c3cc(OC)c(OC)cc3CCN21` (stereo not drawn) [Compound No. 50, 8-n-butyl-13-ethyldihydropalmatine] the IC50 was at least 100 µM. For `Cc1c2[n+](cc3c(O)c(O)ccc13)CCc1cc(O)c(O)cc1-2` [Compound No. 4, 2,3,9,10-Tetrahydroxy-13-methylberberine], the IC50 was 10 to 100 µM. Work on `CCC1=C2c3cc(OC)c(OC)cc3CCN2C(CC(=O)C(C)C)c2c1ccc(OC)c2OC` (stereo not drawn) [Compound No. 39, 8-(3-methylbutan-2-one-1-yl)-13-ethyldihydro palmatine] yielded an IC50 of 10 to 100 µM. Molecule `COC(=O)C(C)c1c2[n+](cc3c(OC)c(OC)ccc13)CCc1cc3c(cc1-2)OCO3` (stereo not drawn) [Compound No. 22, 13-(1-methoxycarbonylethyl)berberine] has an IC50 of at least 100 µM. With `CCc1c2[n+](cc3c(O)c(O)ccc13)CCc1cc(O)c(O)cc1-2` [Compound No. 7, 2,3,9,10-Tetrahydroxy-13-ethylberberine] the IC50 was 10 to 100 µM. `COc1cc2c(cc1OC)-c1c(CC(=O)O)c3ccc(OC)c(OC)c3c[n+]1CC2` [Compound No. 21, 13-Carboxymethylpalmatine] gave an IC50 of at least 100 µM. For `CCC1=C2c3cc(OC)c(OC)cc3CCN2C(C2CCCC2=O)c2c1ccc(OC)c2OC` (stereo not drawn) [Compound No. 42, 8-(cyclopentanon-2-yl)-13-ethyldihydropalmatine], the IC50 was at least 100 µM. With `CCC1=C2c3cc(OC)c(OC)cc3CCN2C(C2CCCCC2=O)c2c1ccc(OC)c2OC` (stereo not drawn) [Compound No. 43, 8-(cyclohexanon-2-yl)-13-ethyldihydropalmatine] the IC50 was at least 100 µM. In the case of `CCCC1c2c(ccc(OC)c2OC)C=C2c3cc4c(cc3CCN21)OCO4` (stereo not drawn) [Compound No. 29, 8-n-propyldiydroberberine], the IC50 is reported as at least 100 µM. Molecule `COc1cc2c(cc1OC)-c1c(CC3CCCCC3)c3ccc(OC)c(OC)c3c[n+]1CC2` [Compound No. 15, 13-(cyclohexylmethyl)palmatine] has an IC50 of at least 100 µM. With `CCCCCCCCC1c2c(ccc(OC)c2OC)C=C2c3cc4c(cc3CCN21)OCO4` (stereo not drawn) [Compound No. 35] the IC50 was at least 100 µM. `CCOc1cc2c(cc1OCC)C1=C(CC)c3ccc(OCC)c(OCC)c3C(CC(C)=O)N1CC2` (stereo not drawn) [Compound No. 44, 8-Acetonyl-13-ethyl-2,3,9,10-tetraethoxy-dihydroprotoberberine] showed an IC50 of 10 to 100 µM. Work on `CCOC(=O)Cc1c2[n+](cc3c(OC)c(OC)ccc13)CCc1cc(OC)c(OC)cc1-2` [Compound No. 20, 13-Ethoxycarbonylmethylpalmatine] yielded an IC50 of at least 100 µM. `CCOC(=O)Cc1c2[n+](cc3c(OC)c(OC)ccc13)CCc1cc3c(cc1-2)OCO3` [Compound No. 24, 13-Ethoxycarbonylmethylberberine] gave an IC50 of at least 100 µM. In the case of `COc1ccc2c(c1OC)C(C(C)C)N1CCc3cc4c(cc3C1=C2)OCO4` (stereo not drawn) [Compound No. 32, 8-i-propyldihydroberberine], the IC50 is reported as at least 100 µM. In the case of `COc1cc2c(cc1OC)C1=Cc3ccc(OC)c(OC)c3C(C)N1CC2` (stereo not drawn) [Compound No. 33, 8-Methyldihydropalmatine], the IC50 is reported as at least 100 µM. For `C=CCc1c2[n+](cc3c(OC)c(OC)ccc13)CCc1cc3c(cc1-2)OCO3` [Compound No. 9, 13-Allylberberine], the IC50 was at least 100 µM. `COc1ccc2c(C)c3[n+](cc2c1OC)CCc1cc(O)c(O)cc1-3` [Compound No. 2, 2,3-Dihydroxy-13-methylberberine] gave an IC50 of 10 to 100 µM. For `CCC1c2c(ccc(OC)c2OC)C=C2c3cc(OC)c(OC)cc3CCN21` (stereo not drawn) [Compound No. 34, 8-Ethyldihydropalmatine], the IC50 was at least 100 µM. With `CCC1c2c(ccc(OC)c2OC)C=C2c3cc4c(cc3CCN21)OCO4` (stereo not drawn) [Compound No. 28, 8-Ethyldihydroberberine] the IC50 was at least 100 µM. `CCC1=C2c3cc(OC)c(OC)cc3CCN2C(CC#N)c2c1ccc(OC)c2OC` (stereo not drawn) [Compound No. 41, 8-Cyanomethyl-13-ethyldihydropalmatine] was tested, and the IC50 was at least 100 µM. For `CCOc1cc2c(cc1OCC)C1=C(CC)c3ccc(OCC)c(OCC)c3C(CC(=O)C(C)C)N1CC2` (stereo not drawn) [Compound No. 45, 8-(3-methylbutan-2-one-1-yl)-13-ethyl-2,3,9,10-tetra ethoxydihydroprotoberberine], the IC50 was 10 to 100 µM. In the case of `CCCc1c2[n+](cc3c(OC)c(OC)ccc13)CCc1cc(OC)c(OC)cc1-2` [Compound No. 11, 13-n-propylpalmatine], the IC50 is reported as 10 to 100 µM. With `COc1cc2c(cc1OC)-c1c(CCCI)c3ccc(OC)c(OC)c3c[n+]1CC2` [Compound No. 16, 13-Iodopropylpalmatine] the IC50 was 10 to 100 µM. `COc1ccc2c(c1OC)C(C)N1CCc3cc4c(cc3C1=C2)OCO4` (stereo not drawn) [Compound No. 27, 8-Methyldihydroberberine] was tested, and the IC50 was at least 100 µM. In the case of `CCC1=C2c3cc(OC)c(OC)cc3CCN2C(CC)c2c1ccc(OC)c2OC` (stereo not drawn) [Compound No. 49, 8-Ethyl-13-ethyldihydropalmatine], the IC50 is reported as at least 100 µM. Work on `COc1ccc2c(c1OC)C(CC(C)=O)N1CCc3cc4c(cc3C1=C2)OCO4` (stereo not drawn) [Compound No. 26, 8-Acetonyldihydroberberine] yielded an IC50 of at least 100 µM. `CCCCOc1cc2c(cc1OCCCC)-c1cc3ccc(OCCCC)c(OCCCC)c3c[n+]1CC2` [Compound No. 17, 2,3,9,10-Tetra-n-butoxyprotoberberine] was tested, and the IC50 was 10 to 100 µM. `COc1cc2c(cc1OC)-c1c(CCC3OCCCO3)c3ccc(OC)c(OC)c3c[n+]1CC2` [Compound No. 18, 13-(1,3-dioxane-2-yl)ethylpalmatine] gave an IC50 of at least 100 µM. `COc1ccc2c(c1OC)C(C1CC1)N1CCc3cc4c(cc3C1=C2)OCO4` (stereo not drawn) [Compound No. 36] gave an IC50 of at least 100 µM.
